Measured values as given in patent publication US12594354B2, “Compositions for visualization of cleaning efficacy and product coverage” (priority 2011, dated 2026).
Structures can show the parent of a compound that is named as a salt.

What was measured:
Assay type in all cases: physicochemical
[1] = Visible fluorescence under short (254 nm) and long (360 nm) ultraviolet light; conditions: in distilled water; visually in dark, 9 watt UV lamp at 6 inches
Source text: All three tracer substances Riboflavin, Folic Acid and Quinine have unique molecular structures that enable them to mix into base solutions with varying polar and non polar charges. Studies by the authors of the current embodiment have also shown that the substances show an affinity for organic matter residue (e.g. proteins, fats, oils, soil, mineral deposits, etc.). Riboflavin (B2),Folic Acid (B9) and Quinine are approved food additives (Codex General Standard for Food Additives, Codex STAN 192; Code of Federal Regulations Title 21 Sec. 184.1695; Sec. 73.450; Sec. 104.20, Sec. 101.9 and Sec. 172.575). […] Experiments by the inventors have shown that when Riboflavin and Quinine are combined in solution the two GRAS or food additive fluorophores fluoresce synergistically under long and short wave ultraviolet light. [table]

[2] = Detection sensitivity of tracers by UV fluorescence and spectrophotometer; conditions: for sensitivity of spectrophotometer absorption and transmission detection: tracers vs control samples
Source text: One method of detecting the presence of the food grade vitamin tracer(s) is by exciting the mixture, treated area or sample swab with ultraviolet light so that the vitamins fluoresce. Riboflavin fluorescence is the identifier for visual observations. Folic Acid fluoresces, but not in the visible spectrum. The color of light is related to the wavelength or frequency of the light. Visible light—to which our eyes are most sensitive—falls in the wavelength range of about 400 to 750 nm. In the absence of visible light and when Riboflavin is excited by long-wave ultraviolet light (maximum lambda=˜365 nm-below the visible spectrum) Riboflavin emits/fluoresces light waves in the visible spectrum (˜450 to 650) which are very distinguishable in the dark when the only other light source is from long (˜365 nm) and midrange (˜312 nm) ultraviolet light. This phenomenon enables visible detection of Riboflavin at levels as low as 1 ppm. It is well know that different compounds have unique absorption and transmission spectra. Another method of quantifying the presence of the food grade vitamin tracers Riboflavin and Folic Acid is by use of a spectrophotometer whereby wavelength absorption and transmission results of known tracers Vs control samples provide characteristic spectra analysis that can be used to determine the absence or presence with sensitivity down to 1 ppm.

[3] = Riboflavin fluorescence persistence in sanitizer and bleach base materials
Source text: FIG. 3 is a flow chart showing how the GRAS or food additive composition is mixed with sanitizer(s) or cleaning chemical(s) for visualization of cleaning efficacy so those trained in the art can validate or verify the hygienic condition of equipment or environments after cleaning. The steps involved with making the combined fluorescent additive and base material invention solution include; (1) select the base material and the specific volume that will be used for the application. It is important to know the composition of the base material, its physical properties and establish a set volume. For purposes of this embodiment, base material can be potable water or any of the various sanitation chemicals that has been approved for use in the food, beverage, pharmaceutical, feed industry by appropriate regulatory authorities. The base material will be approximately 95% of the total end product. Potable tap water is an excellent base material for combining with the embodiment composition to produce a solution that can be applied to equipment at any stage of the cleaning process prior final rinse. Quat sanitizers, liquid soaps and detergents have also been shown by the authors to be excellent base materials. Riboflavin mixed easily into solution when 1,000 ppm was added to KayQuat II (>1,000 ppm quaternary ammonia). Fluorescence was intense from day one through day 270 and has not diminished at the time of this publication. Similar tests were performed on Ajax Liquid Soap with Bleach Alternative with similar results.
It should be noted that bench top studies with concentrate hypochlorite solutions have been shown by the authors to rapidly quench Riboflavin fluorescence. […] Highly alkaline ammonia base material produced similar results. The authors were concerned that chlorinated alkaline detergents and/or foaming cleaners would quench the fluorescence of the embodiment composition so tests were performed to determine the effect.

[4] = 2,500 ppm added to a 30% solution of chlorine bleach

| Structure (SMILES) | Visual Fluorescence Long Wave (360 nm) [1] | Visual Fluorescence Short Wave (254 nm) [1] | sensitivity of spectrophotometer absorption and transmission detection [2] [ppm] | Fluorescence from day one through day 270 ([3]; 1,000 ppm added to KayQuat II (>1,000 ppm quaternary ammonia)) | fluorescence after 8 hours [3, 4] | fluorescence observed for up to 4 hours [3, 4] | visible detection level ([2]; excited by long (~365 nm) and midrange (~312 nm) UV in the dark) [ppm] |
| --- | --- | --- | --- | --- | --- | --- | --- |
| Cc1cc2nc3c(=O)[nH]c(=O)nc-3n(C[C@H](O)[C@H](O)[C@H](O)CO)c2cc1C [50 ppm Riboflavin USP in distilled water, Riboflavin] | Moderate | Very Slight |  |  |  |  |  |
| Nc1nc2ncc(CNc3ccc(C(=O)N[C@@H](CCC(=O)O)C(=O)O)cc3)nc2c(=O)[nH]1 [Folic Acid] |  |  | 1 |  |  |  |  |
| C=C[C@H]1C[N@@]2CC[C@H]1C[C@H]2[C@H](O)c1ccnc2ccc(OC)cc12 [Quinine Sulfate, Dihydrate] | Moderate | Slight |  |  |  |  |  |
| Cc1cc2nc3c(=O)[nH]c(=O)nc-3n(C[C@H](O)[C@H](O)[C@H](O)CO)c2cc1C [Riboflavin] |  |  | 1 | intense | diminished completely | Slight | 1 |
